Measured values taken from patent US20240409585A1, “MACROCYCLIC IMMUNOMODULATORS” (priority 2021, published 2024).
Bridge positions count the residues as written; N and C are the ends. Square brackets hold non-standard residues; d marks the D form. Peptide text beside a SMILES is read from it. * marks the point of attachment. Bip = N[C@@H](Cc1ccc(-c2ccccc2)cc1)C(=O)O; Phe(3-Me) = Cc1cccc(C[C@H](N)C(=O)O)c1; 4Pal = N[C@@H](Cc1ccncc1)C(=O)O; Cha = N[C@@H](CC1CCCCC1)C(=O)O; dDab = NCC[C@@H](N)C(=O)O; Carboxymethyl = O=C(O)C*; NMeA = CN[C@@H](C)C(=O)O; Orn = NCCC[C@H](N)C(=O)O; Dab = NCC[C@H](N)C(=O)O; Dap = NC[C@H](N)C(=O)O; Piv = CC(C)(C)C(=O)*

Target: T1, PE-labeled human PD-L1-Ig binding to Jurkat cell line over-expressing human PD-1 (Jurkat-PD-1) (Homo sapiens, UniProt Q15116)
T1 construct: expressed in transfected cells; host or cells: Jurkat
Test: Jurkat-PD-1 Cell Binding High-Content Screening Assay (CBA): Method 1
Conditions: Jurkat-hPD-1 cells, PE-labeled PD-L1-Ig 20 nM final; read-out: Jurkat HPDL1 PD1 IC50 (uM) (Method 1)

T1 sequence (Q15116 25-288): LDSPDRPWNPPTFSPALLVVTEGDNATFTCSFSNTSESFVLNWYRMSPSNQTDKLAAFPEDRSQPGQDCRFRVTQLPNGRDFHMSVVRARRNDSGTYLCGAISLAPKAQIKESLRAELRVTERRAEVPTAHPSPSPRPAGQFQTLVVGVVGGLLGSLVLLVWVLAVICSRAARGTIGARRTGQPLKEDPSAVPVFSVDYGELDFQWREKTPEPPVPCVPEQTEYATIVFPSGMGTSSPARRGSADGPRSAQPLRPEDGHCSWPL

Row | IC50 [µM] | Structure (SMILES)
1 | 0.01 | CCNC(=O)[C@H](CCN)NC(=O)[C@@H]1CSCC(=O)N[C@@H](Cc2ccc(OCC(=O)O)cc2)C(=O)N[C@@H](Cc2ccc(OCC(=O)O)cc2)C(=O)N[C@@H](CC(=O)O)C(=O)N[C@@H](Cc2cccc(C)c2)C(=O)N[C@@H](C(C)C)C(=O)N[C@@H](Cc2ccc(-c3ccccc3)cc2)C(=O)N[C@@H](Cc2ccc(O)cc2)C(=O)N(C)[C@@H](C)C(=O)N[C@H](CC(C)C)C(=O)N[C@@H](CCN)C(=O)N[C@@H](CC2CCCCC2)C(=O)N[C@@H](C(C)C)C(=O)N[C@@H](CCCN)C(=O)N1 [Compound 1870] ({CH2CO}-Y(Carboxymethyl)Y(Carboxymethyl)D[Phe(3-Me)]V[Bip]Y[NMeA][dL][Dab][Cha]V[Orn]C[Dab]-NHEt; thioether N-14)
2 | 0.02 | Cc1cccc(C[C@@H]2NC(=O)[C@H](CC(=O)O)NC(=O)[C@H](Cc3ccc(OCC(=O)O)cc3)NC(=O)[C@H](Cc3ccc(OCC(=O)O)cc3)NC(=O)CSC[C@@H](C(=O)N[C@@H](CCN)C(N)=O)NC(=O)[C@@H](CCN)NC(=O)[C@H](C(C)C)NC(=O)[C@H](CC3CCCCC3)NC(=O)[C@H](CCN)NC(=O)[C@@H](CC(C)C)NC(=O)[C@H](C)N(C)C(=O)[C@H](Cc3ccc(O)cc3)NC(=O)[C@H](Cc3ccc(-c4ccccc4)cc3)NC(=O)[C@H](Cc3ccc(O)cc3)NC2=O)c1 [Compound 1872] ({CH2CO}-Y(Carboxymethyl)Y(Carboxymethyl)D[Phe(3-Me)]Y[Bip]Y[NMeA][dL][Dab][Cha]V[dDab]C[Dab]-NH2; thioether N-14)
3 | 0.03 | Cc1cccc(C[C@@H]2NC(=O)[C@H](CC(=O)O)NC(=O)[C@H](Cc3ccc(OCC(=O)O)cc3)NC(=O)[C@H](CN)NC(=O)CSC[C@@H](C(=O)N[C@@H](CCN)C(N)=O)NC(=O)[C@@H](CCN)NC(=O)[C@H](C(C)C)NC(=O)[C@H](CC3CCCCC3)NC(=O)[C@H](CCN)NC(=O)[C@@H](CC(C)C)NC(=O)[C@H](C)N(C)C(=O)[C@H](Cc3ccc(O)cc3)NC(=O)[C@H](Cc3ccc(-c4ccccc4)cc3)NC(=O)[C@H](Cc3ccc(O)cc3)NC2=O)c1 [Compound 1873] ({CH2CO}-[Dap]Y(Carboxymethyl)D[Phe(3-Me)]Y[Bip]Y[NMeA][dL][Dab][Cha]V[dDab]C[Dab]-NH2; thioether N-14)
4 | 0.05 | Cc1cccc(C[C@@H]2NC(=O)[C@H](CC(=O)O)NC(=O)[C@H](Cc3ccc(OCC(=O)O)cc3)NC(=O)[C@H](CN)NC(=O)CSC[C@@H](C(=O)N[C@@H](CCN)C(N)=O)NC(=O)[C@H](CCCN)NC(=O)[C@H](C(C)C)NC(=O)[C@H](CC3CCCCC3)NC(=O)[C@H](CCN)NC(=O)[C@@H](C)NC(=O)[C@H](C)N(C)C(=O)[C@H](Cc3ccc(O)cc3)NC(=O)[C@H](Cc3ccc(-c4ccccc4)cc3)NC(=O)[C@H](Cc3ccc(O)cc3)NC2=O)c1 [Compound 1875] ({CH2CO}-[Dap]Y(Carboxymethyl)D[Phe(3-Me)]Y[Bip]Y[NMeA][dA][Dab][Cha]V[Orn]C[Dab]-NH2; thioether N-14)

Second part, the compound before the results:

Row | Structure (SMILES) | IC50 [µM]
5 | Cc1cccc(C[C@@H]2NC(=O)[C@H](CC(=O)O)NC(=O)[C@H](Cc3ccc(OCC(=O)O)cc3)NC(=O)[C@H](Cc3ccncc3)NC(=O)CSC[C@@H](C(=O)N[C@@H](CCN)C(N)=O)NC(=O)[C@H]([C@@H](C)O)NC(=O)[C@H](C(C)C)NC(=O)[C@H](CC3CCCCC3)NC(=O)[C@H](CCNC(=O)C(C)(C)C)NC(=O)[C@@H](CC(C)C)NC(=O)[C@H](C)N(C)C(=O)[C@H](Cc3ccc(OCC(=O)O)cc3)NC(=O)[C@H](Cc3ccc(-c4ccccc4)cc3)NC(=O)[C@H](Cc3ccc(OCC(=O)O)cc3)NC2=O)c1 [Compound 1865] ({CH2CO}-[4Pal]Y(Carboxymethyl)D[Phe(3-Me)]Y(Carboxymethyl)[Bip]Y(Carboxymethyl)[NMeA][dL][Dab](Piv)[Cha]VTC[Dab]-NH2; thioether N-14) | 0.02
6 | Cc1cccc(C[C@@H]2NC(=O)[C@H](CC(=O)O)NC(=O)[C@H](Cc3ccc(OCC(=O)O)cc3)NC(=O)[C@H](CN)NC(=O)CSC[C@@H](C(=O)N[C@@H](CCNC(=O)C(C)(C)C)C(N)=O)NC(=O)[C@H]([C@@H](C)O)NC(=O)[C@H](C(C)C)NC(=O)[C@H](CC3CCCCC3)NC(=O)[C@H](CCN)NC(=O)[C@@H](CC(C)C)NC(=O)[C@H](C)N(C)C(=O)[C@H](Cc3ccc(OCC(=O)O)cc3)NC(=O)[C@H](Cc3ccc(-c4ccccc4)cc3)NC(=O)[C@H](Cc3ccc(OCC(=O)O)cc3)NC2=O)c1 [Compound 1866] ({CH2CO}-[Dap]Y(Carboxymethyl)D[Phe(3-Me)]Y(Carboxymethyl)[Bip]Y(Carboxymethyl)[NMeA][dL][Dab][Cha]VTC[Dab](Piv)-NH2; thioether N-14) | 0.05
7 | Cc1cccc(C[C@@H]2NC(=O)[C@H](CC(=O)O)NC(=O)[C@H](Cc3ccc(OCC(=O)O)cc3)NC(=O)[C@H](Cc3ccncc3)NC(=O)CSC[C@@H](C(=O)N[C@@H](CCNC(=O)C(C)(C)C)C(N)=O)NC(=O)[C@H]([C@@H](C)O)NC(=O)[C@H](C(C)C)NC(=O)[C@H](CC3CCCCC3)NC(=O)[C@H](CCN)NC(=O)[C@@H](CC(C)C)NC(=O)[C@H](C)N(C)C(=O)[C@H](Cc3ccc(OCC(=O)O)cc3)NC(=O)[C@H](Cc3ccc(-c4ccccc4)cc3)NC(=O)[C@H](Cc3ccc(OCC(=O)O)cc3)NC2=O)c1 [Compound 1867] ({CH2CO}-[4Pal]Y(Carboxymethyl)D[Phe(3-Me)]Y(Carboxymethyl)[Bip]Y(Carboxymethyl)[NMeA][dL][Dab][Cha]VTC[Dab](Piv)-NH2; thioether N-14) | 0.03
8 | Cc1cccc(C[C@@H]2NC(=O)[C@H](CC(=O)O)NC(=O)[C@H](Cc3ccc(OCC(=O)O)cc3)NC(=O)[C@H](CCCNC(=N)N)NC(=O)CSC[C@@H](C(N)=O)NC(=O)[C@H]([C@@H](C)O)NC(=O)[C@H](C(C)C)NC(=O)[C@H](CC3CCCCC3)NC(=O)[C@H](CCN)NC(=O)[C@@H](CC(C)C)NC(=O)[C@H](C)N(C)C(=O)[C@H](CCCN)NC(=O)[C@H](Cc3ccc(-c4ccccc4)cc3)NC(=O)[C@H](Cc3ccc(O)cc3)NC2=O)c1 [Compound 1868] ({CH2CO}-RY(Carboxymethyl)D[Phe(3-Me)]Y[Bip][Orn][NMeA][dL][Dab][Cha]VTC-NH2; thioether N-14) | 0.17
9 | CC(=O)NCCC[C@@H]1NC(=O)[C@H](Cc2ccc(-c3ccccc3)cc2)NC(=O)[C@H](Cc2ccc(O)cc2)NC(=O)[C@H](Cc2cccc(C)c2)NC(=O)[C@H](CC(=O)O)NC(=O)[C@H](Cc2ccc(OCC(=O)O)cc2)NC(=O)[C@H](CCCNC(=N)N)NC(=O)CSC[C@@H](C(N)=O)NC(=O)[C@H]([C@@H](C)O)NC(=O)[C@H](C(C)C)NC(=O)[C@H](CC2CCCCC2)NC(=O)[C@H](CCN)NC(=O)[C@@H](CC(C)C)NC(=O)[C@H](C)N(C)C1=O [Compound 1869] ({CH2CO}-RY(Carboxymethyl)D[Phe(3-Me)]Y[Bip][Orn](Ac)[NMeA][dL][Dab][Cha]VTC-NH2; thioether N-14) | 0.05
10 | Cc1cccc(C[C@@H]2NC(=O)[C@H](CC(=O)O)NC(=O)[C@H](Cc3ccc(OCC(=O)O)cc3)NC(=O)[C@H](CN)NC(=O)CSC[C@@H](C(=O)N[C@@H](CCN)C(N)=O)NC(=O)[C@H](CCCN)NC(=O)[C@H](C(C)C)NC(=O)[C@H](CC(C)C)NC(=O)[C@H](CCN)NC(=O)[C@@H](C)NC(=O)[C@H](C)N(C)C(=O)[C@H](Cc3ccc(O)cc3)NC(=O)[C@H](Cc3ccc(-c4ccccc4)cc3)NC(=O)[C@H](Cc3ccc(O)cc3)NC2=O)c1 [Compound 1874] ({CH2CO}-[Dap]Y(Carboxymethyl)D[Phe(3-Me)]Y[Bip]Y[NMeA][dA][Dab]LV[Orn]C[Dab]-NH2; thioether N-14) | 0.28
